Several values for one entry are separate records, joined by “and”; a condition that tells them apart may be missing. Identical values can stand only once. Inconclusive results and toxic doses are left out. How the source made its calls: active means survival T/C of 150% or more; inactive means T/C below 125% in these data.
System: CD2F1 mice, L1210 leukemia ip, survival T/C
Test: NCI In Vivo Anticancer Drug Screen. Data for tumor model L1210 Leukemia (intraperitoneal) in CD2F1 (CDF1) mice
Settings: higher = longer survival
In short: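 Ratio T/C, where T is the treated-group value and C the vehicle-dosed control value, from mice implanted with a transplantable tumor.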

[1] = endpoint: mean survival time, dose: 100.0 mg/kg/injection, schedule: Q01DX009 (ip), vehicle: saline with Tween-80
[2] = endpoint: mean survival time, dose: 100.0 mg/kg/injection, schedule: Q04DX003 (ip), vehicle: saline with Tween-80
[3] = endpoint: mean survival time, dose: 200.0 mg/kg/injection, schedule: Q01DX009 (ip), vehicle: saline with Tween-80
[4] = endpoint: mean survival time, dose: 200.0 mg/kg/injection, schedule: Q04DX003 (ip), vehicle: saline with Tween-80
[5] = endpoint: mean survival time, dose: 400.0 mg/kg/injection, schedule: Q01DX009 (ip), vehicle: saline with Tween-80
[6] = endpoint: mean survival time, dose: 400.0 mg/kg/injection, schedule: Q04DX003 (ip), vehicle: saline with Tween-80
[7] = endpoint: mean survival time, dose: 50.0 mg/kg/injection, schedule: Q01DX009 (ip), vehicle: saline
[8] = endpoint: mean survival time, dose: 12.5 mg/kg/injection, schedule: Q01DX009 (ip), vehicle: saline with Tween-80
[9] = endpoint: mean survival time, dose: 25.0 mg/kg/injection, schedule: Q01DX009 (ip), vehicle: saline with Tween-80
[10] = endpoint: mean survival time, dose: 100.0 mg/kg/injection, schedule: Q01DX001 (ip), vehicle: saline with Tween-80
[11] = endpoint: mean survival time, dose: 50.0 mg/kg/injection, schedule: Q01DX009 (ip), vehicle: saline with Tween-80

Measured: T/C

CCC1(O)C(=O)OCc2c1cc1n(c2=O)Cc2cc3cc(N)ccc3nc2-1 (stereo unspecified)
active: endpoint: median survival time, dose: 1.35 mg/kg/injection, schedule: Q01DX005 (ip), vehicle: saline 243 % of control | endpoint: median survival time, dose: 1.87 mg/kg/injection, schedule: Q01DX005 (ip), vehicle: saline 188 % of control | endpoint: median survival time, dose: 2.0 mg/kg/injection, schedule: Q04DX002 (ip), vehicle: saline 158 % of control | endpoint: median survival time, dose: 2.25 mg/kg/injection, schedule: Q01DX005 (ip), vehicle: saline 243 % of control | endpoint: median survival time, dose: 3.75 mg/kg/injection, schedule: Q01DX005 (ip), vehicle: saline 271 % of control and 365 % of control | endpoint: median survival time, dose: 4.0 mg/kg/injection, schedule: Q04DX002 (ip), vehicle: saline 157 % of control and 170 % of control | endpoint: median survival time, dose: 8.0 mg/kg/injection, schedule: Q04DX002 (ip), vehicle: saline 256 % of control and 329 % of control | endpoint: median survival time, dose: 16.0 mg/kg/injection, schedule: Q04DX002 (ip), vehicle: saline 243 % of control and 329 % of control | endpoint: median survival time, dose: 32.0 mg/kg/injection, schedule: Q04DX002 (ip), vehicle: saline 268 % of control
inactive: endpoint: median survival time, dose: 6.25 mg/kg/injection, schedule: Q01DX005 (ip), vehicle: saline 90 % of control | endpoint: median survival time, dose: 7.5 mg/kg/injection, schedule: Q01DX005 (ip), vehicle: saline 123 % of control | endpoint: median survival time, dose: 15.0 mg/kg/injection, schedule: Q01DX005 (ip), vehicle: saline 100 % of control | endpoint: median survival time, dose: 30.0 mg/kg/injection, schedule: Q01DX005 (ip), vehicle: saline 88 % of control

Cc1ccccc1NC(=O)c1cc2ccccc2cc1O
inactive: [1] 91 % of control | [2] 102 % of control | [3] 94 % of control | [4] 89 % of control | [5] 94 % of control | [6] 91 % of control

Cc1cccc(NC(=O)NCCBr)c1
inactive: [2] 100 % of control | [4] 88 % of control | [6] 92 % of control

COC(=O)C1CCCCCC1=O (stereo unspecified)
inactive: [2] 96 % of control | [4] 94 % of control | [6] 88 % of control

Cc1cccc(/C=N\OCc2ccccc2)n1
inactive: [1] 98 % of control | [3] 113 % of control

Cc1cc(CC(O)(C(F)(F)F)C(F)(F)F)cc(C(=O)O)n1
inactive: [2] 98 % of control | [4] 107 % of control | [6] 87 % of control

CCC(C)(C)C1=C(N=[N+]=[N-])C(=O)C(C(C)(C)CC)=C(N=[N+]=[N-])C1=O
inactive: endpoint: mean survival time, dose: 100.0 mg/kg/injection, schedule: Q01DX001 (ip), vehicle: other 100 % of control | endpoint: mean survival time, dose: 200.0 mg/kg/injection, schedule: Q01DX001 (ip), vehicle: other 96 % of control | endpoint: mean survival time, dose: 400.0 mg/kg/injection, schedule: Q01DX001 (ip), vehicle: other 103 % of control

C=C(C)CCCC(C)C(O)C=O (stereo unspecified)
inactive: endpoint: mean survival time, dose: 100.0 mg/kg/injection, schedule: Q01DX001 (ip), vehicle: saline 98 % of control | endpoint: mean survival time, dose: 200.0 mg/kg/injection, schedule: Q01DX001 (ip), vehicle: saline 95 % of control | endpoint: mean survival time, dose: 400.0 mg/kg/injection, schedule: Q01DX001 (ip), vehicle: saline 95 % of control

O=C(O)c1ccc(P(=O)(O)O)cc1[N+](=O)[O-]
inactive: endpoint: mean survival time, dose: 25.0 mg/kg/injection, schedule: Q01DX009 (ip), vehicle: saline 91 % of control | [7] 86 % of control

CCCC(CC)C(=O)CC1CCCCC1 (stereo unspecified)
inactive: [2] 105 % of control | [4] 94 % of control | [6] 98 % of control

c1nc(SSc2ncnc3nc[nH]c23)c2[nH]cnc2n1
active: [8] 186 % of control | [9] 151 % of control | endpoint: mean survival time, dose: 30.0 mg/kg/injection, schedule: Q01DX001 (ip), vehicle: saline with Tween-80 150 % of control | endpoint: mean survival time, dose: 66.0 mg/kg/injection, schedule: Q01DX001 (ip), vehicle: saline with Tween-80 157 % of control | [10] 155 % of control | endpoint: mean survival time, dose: 150.0 mg/kg/injection, schedule: Q01DX001 (ip), vehicle: saline with Tween-80 162 % of control

COCCOC
inactive: endpoint: mean survival time, dose: 200.0 mg/kg/injection, schedule: Q01DX Z (ip), vehicle: carboxymethylcellulose (CMC) 103 % of control | endpoint: mean survival time, dose: 300.0 mg/kg/injection, schedule: Q01DX Z (ip), vehicle: carboxymethylcellulose (CMC) 110 % of control | endpoint: mean survival time, dose: 450.0 mg/kg/injection, schedule: Q01DX Z (ip), vehicle: carboxymethylcellulose (CMC) 114 % of control | endpoint: mean survival time, dose: 675.0 mg/kg/injection, schedule: Q01DX Z (ip), vehicle: carboxymethylcellulose (CMC) 102 % of control

O=S(=O)(c1ccccc1)N1CN2CCN(C2)C1
inactive: [8] 95 % of control and 110 % of control | [9] 97 % of control and 100 % of control | [11] 102 % of control and 106 % of control | [1] 101 % of control and 111 % of control | [3] 117 % of control and 107 % of control | [5] 117 % of control and 105 % of control

Cc1cc(N)c(C)c(C)c1O
inactive: [9] 90 % of control | [11] 98 % of control | [1] 88 % of control

CC(C)(SSC(C)(C)C(N)C(=O)O)C(N)C(=O)O (stereo unspecified)
inactive: [10] 108 % of control | [1] 94 % of control | endpoint: mean survival time, dose: 200.0 mg/kg/injection, schedule: Q01DX001 (ip), vehicle: saline with Tween-80 101 % of control | [3] 93 % of control | endpoint: mean survival time, dose: 400.0 mg/kg/injection, schedule: Q01DX001 (ip), vehicle: saline with Tween-80 109 % of control | [5] 90 % of control

CN(Cc1cnc2nc(N)nc(N)c2n1)c1ccc(C(=O)NC(CCC(=O)O)C(=O)NCC(=O)O)cc1 (stereo unspecified)
inactive: endpoint: mean survival time, dose: 1.0 mg/kg/injection, schedule: Q01DX009 (ip), vehicle: sodium bicarbonate 103 % of control | endpoint: mean survival time, dose: 2.0 mg/kg/injection, schedule: Q01DX009 (ip), vehicle: sodium bicarbonate 109 % of control | endpoint: mean survival time, dose: 5.0 mg/kg/injection, schedule: Q01DX009 (ip), vehicle: sodium bicarbonate 102 % of control | endpoint: mean survival time, dose: 10.0 mg/kg/injection, schedule: Q01DX009 (ip), vehicle: sodium bicarbonate 108 % of control

CN(C)c1ccc(/C=N\NC(=O)CNC(=O)Nc2ccc(F)cc2)c(Cl)c1
inactive: [11] 100 % of control | [1] 88 % of control | [3] 92 % of control

O=C(O)c1ccccc1C(=O)c1ccc(CBr)cc1
inactive: endpoint: mean survival time, dose: 6.25 mg/kg/injection, schedule: Q04DX003 (ip), vehicle: saline with Tween-80 93 % of control | endpoint: mean survival time, dose: 12.5 mg/kg/injection, schedule: Q04DX003 (ip), vehicle: saline with Tween-80 101 % of control | endpoint: mean survival time, dose: 25.0 mg/kg/injection, schedule: Q04DX003 (ip), vehicle: saline with Tween-80 101 % of control

N#CCCSc1ccccc1
inactive: [2] 90 % of control | [4] 102 % of control | [6] 96 % of control

O=Cc1n[nH]nc1-c1ccccc1
inactive: [1] 94 % of control | [2] 98 % of control | [3] 100 % of control | [4] 101 % of control | [5] 103 % of control | [6] 95 % of control

CCCNc1ccc(S(=O)(=O)c2ccc(N)cc2)cc1
inactive: [9] 95 % of control | [11] 95 % of control | [1] 89 % of control

Cc1ccccc1C(C)C
inactive: [2] 101 % of control | [4] 97 % of control | [6] 101 % of control

S=C(S)Nc1cccc2ccccc12
inactive: [1] 93 % of control | [3] 97 % of control | [5] 93 % of control

COc1ccc(Cl)c2c1C1(CC(CC=O)C2)OCCO1 (stereo unspecified)
inactive: endpoint: mean survival time, dose: 75.0 mg/kg/injection, schedule: Q01DX001 (ip), vehicle: other 100 % of control | endpoint: mean survival time, dose: 150.0 mg/kg/injection, schedule: Q01DX001 (ip), vehicle: other 94 % of control | endpoint: mean survival time, dose: 300.0 mg/kg/injection, schedule: Q01DX001 (ip), vehicle: other 94 % of control

COc1cc(OC)c(NC(=O)OCCOc2ccc(Cl)cc2Cl)cc1Cl
inactive: [11] 92 % of control | [1] 88 % of control

COCCCN1CCN(c2ccccc2OC)CC1
inactive: [7] 93 % of control | endpoint: mean survival time, dose: 100.0 mg/kg/injection, schedule: Q01DX009 (ip), vehicle: saline 88 % of control | endpoint: mean survival time, dose: 100.0 mg/kg/injection, schedule: Q04DX003 (ip), vehicle: saline 98 % of control | endpoint: mean survival time, dose: 200.0 mg/kg/injection, schedule: Q04DX003 (ip), vehicle: saline 104 % of control

CCCCCCCCCCCCN1C(C)=CS/C1=C\C=C\c1scc(C)[n+]1CCCCCCCCCCCC
inactive: endpoint: mean survival time, dose: 0.78 mg/kg/injection, schedule: Q01DX009 (ip), vehicle: saline with Tween-80 123 % of control

Nc1nc2c(ncn2C2CC(O)C(CO)O2)c(=O)n1N (stereo unspecified)
inactive: endpoint: mean survival time, dose: 75.0 mg/kg/injection, schedule: Q01DX001 (ip), vehicle: saline 97 % of control | endpoint: mean survival time, dose: 150.0 mg/kg/injection, schedule: Q01DX001 (ip), vehicle: saline 100 % of control

OCC1OC(n2ncc3c2ncn2ncnc32)C(O)C1O (stereo unspecified)
inactive: endpoint: mean survival time, dose: 12.5 mg/kg/injection, schedule: Q01DX005 (ip), vehicle: water 90 % of control | endpoint: mean survival time, dose: 25.0 mg/kg/injection, schedule: Q01DX005 (ip), vehicle: water 94 % of control | endpoint: mean survival time, dose: 50.0 mg/kg/injection, schedule: Q01DX005 (ip), vehicle: water 101 % of control | endpoint: mean survival time, dose: 100.0 mg/kg/injection, schedule: Q01DX005 (ip), vehicle: water 100 % of control | endpoint: mean survival time, dose: 200.0 mg/kg/injection, schedule: Q01DX005 (ip), vehicle: water 113 % of control
